Literature values in US12391711B2 (priority 2020, dated 2025).

Settings: human, Pain Res. Manag., 2005, 10: 15A-22A

For `CCCCCc1cc(O)c2c(c1)OC(C)(C)[C@@H]1CCC(C)=C[C@@H]21` [THC, (6aR,10aR)-6,6,9-trimethyl-3-pentyl-6a,7,8,10a-tetrahydro-6H-benzo[c]chromen-1-ol], the oral bioavailability is listed as 4%-12%.
